Results as given in patent publication US20090325913A1, “Treatment of pain using satraplatin” (priority 2006, published 2009).

Experiments:
[1] = system: prostate cancer cell lines PC-3, DU 145 and LNCaP; settings: cited from earlier work
[2] = system: patients with metastatic prostatic carcinoma; settings: single agent; cited from earlier work
[3] = system: human lung cancer cells; settings: cited from earlier work
[4] = system: CYP enzymes (cytochrome P450 system); test: Inhibition of CYP enzymes; type: in vitro ADME
Description: This may result in increased toxicity of certain drugs (see Appendix 5). Patients will be monitored closely for drug interactions or adverse reactions to concomitant medications. Investigators are cautioned to adjust concomitant medication dosages appropriately.

[5] = system: human tumor cell lines with different sensitivities to cisplatin; settings: at equimolar basis; cited from earlier work
[6] = system: mismatch repair-proficient and mismatch repair-deficient cell lines; settings: cited from earlier work

Compound | effect of treatment on prostate cancer cells [1] | efficacy [2] | effect on radiation response [3] | sensitivity of androgen-insensitive PC-3 and DU 145 vs androgen-sensitive LNCaP [1] | inhibition of CYP enzymes [4] | levels of platinum-DNA adducts compared to cisplatin [5] | difference in sensitivity between mismatch repair-proficient and -deficient cell lines [6]
N.NC1CCCCC1.[Cl-].[Cl-].[Pt+2] [JM118, reference compound] | tumor cell kill | – | – | – | – | – | –
N.N.[Cl][Pt][Cl] [cisplatin] | – | not effective | – | – | – | – | –
CC(=O)[O][Pt]([NH2])([Cl])([Cl])([NH]C1CCCCC1)[O]C(C)=O [satraplatin, bis(acetato)ammine dichloro(cyclohexylamine)platinum (IV)] | tumor cell kill | – | can potentiate the effects of radiation | more sensitive | strong inhibitor | lower levels of platinum-DNA adducts | no difference in sensitivity
